From publication PMC6697623 (2019)

System: Corn wild type (RNA 1) (RNA, aptamer) GGCGCGAGGAAGGAGGUCUGAGGAGGUCACUGCGCC
Test: fluorescence titration, RNA varied
Conditions: 100 mM KCl, 10 mM MgCl2; pH 7.5, 20 °C; 2.5 μM TO

- apparent Kd: 1.4 µM
Compound: CN1C(=Cc2cc[n+](C)c3ccccc23)Sc2ccccc21
